From PubChem BioAssay (NCI)
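Grown in 96-well plates, cells were treated for 48 hours with each compound at five concentrations. Insufficient inhibition: endpoint recorded as highest concentration tested. Definition used: TGI = concentration required for complete inhibition of growth.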 Where a SMILES comes first, the peptide text is derived from it. The star is where a group is joined. Cbz = O=C(OCc1ccccc1)*; Boc = CC(C)(C)OC(=O)*; OSu = O=C1CCC(=O)N1O*; Bn = c1ccc(C*)cc1

Experiments:
Test in all cases: NCI-60 cell line screen, 48 h
NCI-H226 lung = test system: NCI-H226 lung
MDA-N = test system: MDA-N
BT-549 breast = test system: BT-549 breast
SW-620 colon = test system: SW-620 colon
OVCAR-8 ovarian = test system: OVCAR-8 ovarian
A549 NSCLC = test system: A549 NSCLC
U251 CNS = test system: U251 CNS
SK-MEL-28 melanoma = test system: SK-MEL-28 melanoma
HOP-92 NSCLC = test system: HOP-92 NSCLC
MDA-MB-231 breast = test system: MDA-MB-231 breast
MOLT-4 leukemia = test system: MOLT-4 leukemia
M14 melanoma = test system: M14 melanoma
HT29 colon = test system: HT29 colon

Compound	TGI (NCI-H226 lung)	TGI (MDA-N)	TGI (BT-549 breast)	TGI (SW-620 colon)	TGI (OVCAR-8 ovarian)	TGI (A549 NSCLC)	TGI (U251 CNS)	TGI (SK-MEL-28 melanoma)	TGI (HOP-92 NSCLC)	TGI (MDA-MB-231 breast)	TGI (MOLT-4 leukemia)	TGI (M14 melanoma)	TGI (HT29 colon)
NC(=S)N/N=C1\NC(=O)/C(=C/c2ccc3c(c2)OCO3)S1	78.7 µM	97.9 µM	84.7 µM	88.8 µM	78 µM	> 100 µM	57.7 µM	78.7 µM	56.7 µM	77.1 µM	67.3 µM	68.3 µM	82.9 µM
CN(C)P(=O)(Oc1ccc(CC(NC(=O)OCc2ccccc2)C(=O)OCc2ccccc2)cc1)N(C)C (configuration not stated)	52.8 µM	34 µM	32.4 µM	45.8 µM	33.2 µM	38.2 µM	28.2 µM	34.4 µM	34.9 µM	34.3 µM	13.7 µM	32 µM	24.6 µM
CCCCCCOc1ccc(C(=O)NO)cc1	32.6 µM	34.1 µM	72.8 µM	35.8 µM	31.6 µM	43.3 µM	28.9 µM	43.9 µM	40 µM	21.9 µM	18.7 µM	34 µM	22.7 µM
CCOC(=O)CSc1nnc2cc(CN3CCCC3)c(-c3ccc(Cl)cc3)nn12	> 100 µM	> 100 µM	> 100 µM	> 100 µM	> 100 µM	> 100 µM	> 100 µM	> 100 µM	> 100 µM	> 100 µM	> 100 µM	> 100 µM	> 100 µM
O=C(Nc1ccccc1)N(C1=NCC(CI)S1)c1ccc(F)cc1F (configuration not stated)	> 100 µM	> 100 µM	89.4 µM	> 100 µM	> 100 µM	> 100 µM	> 100 µM	83.4 µM	51.1 µM	78.4 µM	57 µM	> 100 µM	> 100 µM
CCN(CC)CCNC(=O)c1cc2cc(NC(=O)c3cc4cc(NC(=O)c5cc6cc(N)ccc6[nH]5)ccc4[nH]3)ccc2[nH]1	> 100 µM	> 100 µM	> 100 µM	> 100 µM	> 100 µM	> 100 µM	> 100 µM	> 100 µM	> 100 µM	> 100 µM	> 100 µM	> 100 µM	> 100 µM
CCc1n[nH]c(=O)n1/N=C/c1ccc(C)cc1	> 100 µM	> 100 µM	> 100 µM	> 100 µM	> 100 µM	> 100 µM	> 100 µM	> 100 µM	> 100 µM	> 100 µM	> 100 µM		> 100 µM
CC(=O)Oc1ccccc1/C=C/C(=O)/C=C/c1ccccc1OC(C)=O	3.89 µM	6.67 µM	3.97 µM	2.32 µM	5.12 µM	6.37 µM	3.18 µM	4.09 µM	10.7 µM	6.08 µM	5.71 µM	4.45 µM	4.25 µM
COc1cc(S(=O)(=O)Nc2ccc(-c3csc(N)n3)cc2)ccc1Cl	77.5 µM	38.5 µM	43.1 µM	58.5 µM	40.7 µM	39.6 µM		48.5 µM	39.5 µM	31.4 µM	31.7 µM	35 µM	35.8 µM
C=CCSC1=N/C(=C\c2cccs2)C(=O)N1CC=C	> 100 µM	> 100 µM	> 100 µM	> 100 µM	> 100 µM	> 100 µM	> 100 µM	> 100 µM	57 µM	> 100 µM	62.2 µM	> 100 µM	> 100 µM
c1ccc(CNCCCCNCCCNCc2ccccc2)cc1	41.4 µM	26.3 µM	33.6 µM	31.8 µM		36.2 µM	35.7 µM	31.2 µM	25.3 µM	33.2 µM	33.2 µM	86.5 µM	31 µM
COc1cc(OC)c2nc(C)c3c(c2c1)NCC3	19 µM	21.1 µM	27.5 µM	19.1 µM	19 µM	34.1 µM	33.4 µM	28.5 µM	30.9 µM	21.8 µM		24.1 µM	15.5 µM
CC(C)(C)OC(=O)NC(Cc1ccc(OCc2ccccc2)cc1)C(=O)NC(CCCCNC(=O)OCc1ccccc1)C(=O)ON1C(=O)CCC1=O (configuration not stated) (Boc-Tyr(Bn)-Lys(Cbz)-OSu; configuration not given here)	99.6 µM	29.9 µM	43.3 µM	41.1 µM	51.9 µM	> 100 µM	32.2 µM	30.8 µM		81.1 µM	48.2 µM	46.2 µM	80.2 µM
CC(NC(=O)C(N)CC(=O)O)NC(=O)C1CCC1 (configuration not stated)	> 100 µM	> 100 µM	> 100 µM	> 100 µM	> 100 µM	> 100 µM	> 100 µM	> 100 µM		> 100 µM	> 100 µM	> 100 µM	> 100 µM
CC(NC(=O)c1ccccc1)NC(=O)C(C)C(=O)Nc1ccccc1 (configuration not stated)	> 100 µM	> 100 µM	> 100 µM	> 100 µM	> 100 µM	> 100 µM	> 100 µM		> 100 µM	> 100 µM	> 100 µM	> 100 µM	> 100 µM
Cc1nnc2sc(NN)nn12	> 100 µM	> 100 µM	> 100 µM	> 100 µM	> 100 µM	> 100 µM	> 100 µM	> 100 µM		> 100 µM	31.6 µM	> 100 µM	> 100 µM
CC1Oc2c(c(=O)oc3ccccc23)[C@@]1(C)CC1C[C@H](C)C(=O)O1 (some centres not stated)	> 100 µM	45.9 µM	71.8 µM	> 100 µM	> 100 µM	> 100 µM	> 100 µM	38.7 µM		> 100 µM	37.2 µM	39.6 µM	71.5 µM
